Assay: Human dosimetry estimation from ex vivo biodistribution (organ harvesting method)
Assay type: in vivo, CD-1 mice
Settings: for OD Adrenals / OD Brain / OD Breasts / OD Gallbladder Wall / OD Heart Wall / OD Kidneys / OD LLI Wall / OD Liver / OD Lungs / OD Muscle / OD Osteogenic Cells / OD Ovaries / OD Pancreas / OD Red Marrow / OD Skin / OD Small Intestine / OD Spleen / OD Stomach Wall / OD Testes / OD Thymus / OD Thyroid / OD Total Body / OD ULI Wall / OD Urinary Bladder Wall / OD Uterus / ED Contr. Adrenals / ED Contr. Brain / ED Contr. Breasts / ED Contr. Gallbladder Wall / ED Contr. Heart Wall / ED Contr. Kidneys / ED Contr. LLI Wall / ED Contr. Liver / ED Contr. Lungs / ED Contr. Muscle / ED Contr. Osteogenic Cells / ED Contr. Ovaries / ED Contr. Pancreas / ED Contr. Red Marrow / ED Contr. Skin / ED Contr. Small Intestine / ED Contr. Spleen / ED Contr. Stomach Wall / ED Contr. Thymus / ED Contr. Thyroid / ED Contr. ULI Wall / ED Contr. Urinary Bladder Wall / ED Contr. Uterus: mouse organ harvesting; for OD Adrenals / OD Brain / OD Breasts / OD Gallbladder Wall / OD Heart Wall / OD Kidneys / OD LLI Wall / OD Liver / OD Lungs / OD Muscle / OD Osteogenic Cells / OD Ovaries / OD Pancreas / OD Red Marrow / OD Skin / OD Small Intestine / OD Spleen / OD Stomach Wall / OD Testes / OD Thymus / OD Thyroid / OD Total Body / OD ULI Wall / OD Urinary Bladder Wall / OD Uterus: scaled to human adult male model; for ED Contr. Adrenals / ED Contr. Brain / ED Contr. Breasts / ED Contr. Gallbladder Wall / ED Contr. Heart Wall / ED Contr. Kidneys / ED Contr. LLI Wall / ED Contr. Liver / ED Contr. Lungs / ED Contr. Muscle / ED Contr. Osteogenic Cells / ED Contr. Ovaries / ED Contr. Pancreas / ED Contr. Red Marrow / ED Contr. Skin / ED Contr. Small Intestine / ED Contr. Spleen / ED Contr. Stomach Wall / ED Contr. Thymus / ED Contr. Thyroid / ED Contr. ULI Wall / ED Contr. Urinary Bladder Wall / ED Contr. Uterus / ED ICRP 60 / ED: scaled to human; for ED Contr. Adrenals / ED Contr. Brain / ED Contr. Breasts / ED Contr. Gallbladder Wall / ED Contr. Heart Wall / ED Contr. Kidneys / ED Contr. LLI Wall / ED Contr. Liver / ED Contr. Lungs / ED Contr. Muscle / ED Contr. Osteogenic Cells / ED Contr. Ovaries / ED Contr. Pancreas / ED Contr. Red Marrow / ED Contr. Skin / ED Contr. Small Intestine / ED Contr. Spleen / ED Contr. Stomach Wall / ED Contr. Thymus / ED Contr. Thyroid / ED Contr. ULI Wall / ED Contr. Urinary Bladder Wall / ED Contr. Uterus / ED: ICRP 103 weighting; for ED ICRP 60 / ED: mouse, harvesting; for ED ICRP 60: ICRP 60 weighting
Method: Female CD-1 mice (age: 12 weeks) received an intravenous injection of (R)-(+)-[^18F]fluspidine (0.35 ± 0.08 MBq; weight: 29.8 ± 2.2 g; n = 28) or (S)-(−)-[^18F]fluspidine (0.39 ± 0.05 MBq; weight: 29.3 ± 1.9 g; n = 22). Two to three animals per time point were sacrificed by cervical dislocation at 5, 15, 30, 45, 60, 90, 120, 180, and 240 min. p.i. The brain, heart, lung, stomach, small intestine (SI), large intestine (LI), liver, kidneys, urinary bladder (UB), spleen, thymus, pancreas, adrenals, and ovaries were dissected, weighed, and the accumulated activity quantified in a gamma-counter (WIZARD Automatic Gamma Counter, PerkinElmer, Waltham, MA, USA) to determine the percentage injected activity (dose) per gram of tissue (%ID/g).
In addition, the sampling time p.i. and %ID/g values were scaled proportionately to human magnitude (please see Equations (1) and (2) in Section 4.4) prior to dose estimation with OLINDA/EXM (Vanderbilt University, Nashville, TN, USA, version 1.0).
For human dosimetry estimation from animal biodistribution and PET/MR imaging, animal organ masses and time scale was extrapolated to human magnitudes. At first, the organ-specific animal %ID data were extrapolated to the human scale with the equation (1) %ID/organhuman=%ID/gmouse · morganhuman · mmouse/mhuman with the fraction of the injected activity in the corresponding human organ = %ID/organhuman , the fraction of injected activity per gram animal organ tissue = %ID/gmouse and morganhuman the mass of the corresponding human organ. At second, a time scale extrapolation is needed due to differences in the metabolic rate using the equation (2) thuman=tmouse{mhuman/mmouse}^0.25 including the human time scale = thuman , the animal time scale = tmouse and the ratio of animal and human body weights = mmouse/mhuman .
The human dosimetry estimation was performed with the data extrapolated as well as the genuine human data using OLINDA/EXM software. The time-activity curves were estimated by exponential fitting and calculating the time integral, which equals the number of disintegrations (NODs) per organ during the observation period normalized to 1 Becquerel administered activity dose. […] Therefore, activity data of the urinary bladder was derived from the image for each time point. In contrast, for humans the activity concentration data of the urinary bladder was obtained in a more direct approach. At first, the activity and volume of urine was determined in the last frame of the PET scan before each micturition. Afterwards, the voided urine was collected, weighed, and the activity of three aliquots (assuming 1 mL = 1 g) determined with a gamma counter, and the activity of the whole sample estimated. The difference between imaged and sampled urine activity is equal to the residue of radioactive urine in the urinary bladder. To calculate the NOD in the human urinary bladder, the time-activity curve is integrated using a trapezoidal equation (3) %ID˜UB=1/2∑i=1n−1(%IDi+%IDi+1)(ti+1−ti) with the fraction of injected activity %IDi at the time ti and the cumulated activity of the urinary bladder i.e., the NOD %ID˜UB .
Furthermore, the NODs of the gastric system were calculated following the ICRP GI model (ICRP 30) as implemented in OLINDA 1.0. The NODs obtained either from the EXM module or the trapezoidal equation were transferred to OLINDA. The OD for the chosen hermaphroditic adult male phantom is estimated following the MIRD scheme. The S values are pre-calculated and implemented for the respective phantom in OLINDA. Subsequently, the ED contribution from each organ is calculated by multiplying the ODs with the respective tissue weighting factors as published by the International Commission on Radiological Protection (ICRP 103 [27]) for each organ. […]

[18F]CC[C@H]1OC2(CCN(Cc3ccccc3)CC2)c2ccccc21 [(R)-(+)-[^18F]fluspidine]
OD Adrenals: 18.6 μSv/MBq
OD Brain: 12.6 μSv/MBq
OD Breasts: 11.3 μSv/MBq
OD Gallbladder Wall: 14.0 μSv/MBq
OD Heart Wall: 22.3 μSv/MBq
OD Kidneys: 27.6 μSv/MBq
OD LLI Wall: 16.4 μSv/MBq
OD Liver: 10.3 μSv/MBq
OD Lungs: 45.5 μSv/MBq
OD Muscle: 7.1 μSv/MBq
OD Osteogenic Cells: 19.1 μSv/MBq
OD Ovaries: 24.9 μSv/MBq
OD Pancreas: 21.7 μSv/MBq
OD Red Marrow: 13.5 μSv/MBq
OD Skin: 8.7 μSv/MBq
OD Small Intestine: 25.1 μSv/MBq
OD Spleen: 17.2 μSv/MBq
OD Stomach Wall: 14.3 μSv/MBq
OD Testes: 10.8 μSv/MBq
OD Thymus: 19.3 μSv/MBq
OD Thyroid: 11.5 μSv/MBq
OD Total Body: 12.2 μSv/MBq
OD ULI Wall: 25.6 μSv/MBq
OD Urinary Bladder Wall: 20.2 μSv/MBq
OD Uterus: 14.9 μSv/MBq
ED Contr. Adrenals: 0.2 μSv/MBq
ED Contr. Brain: 0.1 μSv/MBq
ED Contr. Breasts: 1.4 μSv/MBq
ED Contr. Gallbladder Wall: 0.1 μSv/MBq
ED Contr. Heart Wall: 0.2 μSv/MBq
ED Contr. Kidneys: 0.2 μSv/MBq
ED Contr. LLI Wall: 1.0 μSv/MBq
ED Contr. Liver: 0.4 μSv/MBq
ED Contr. Lungs: 5.5 μSv/MBq
ED Contr. Muscle: 0.1 μSv/MBq
ED Contr. Osteogenic Cells: 0.2 μSv/MBq
ED Contr. Ovaries: 2.0 μSv/MBq
ED Contr. Pancreas: 0.2 μSv/MBq
ED Contr. Red Marrow: 1.6 μSv/MBq
ED Contr. Skin: 0.1 μSv/MBq
ED Contr. Small Intestine: 0.2 μSv/MBq
ED Contr. Spleen: 0.1 μSv/MBq
ED Contr. Stomach Wall: 1.7 μSv/MBq
ED Contr. Thymus: 0.2 μSv/MBq
ED Contr. Thyroid: 0.5 μSv/MBq
ED Contr. ULI Wall: 1.5 μSv/MBq
ED Contr. Urinary Bladder Wall: 0.8 μSv/MBq
ED Contr. Uterus: 0.1 μSv/MBq
ED ICRP 60: 20.1 μSv/MBq
ED: 18.4 μSv/MBq

FCC[C@@H]1OC2(CCN(Cc3ccccc3)CC2)c2ccccc21 [(S)-(−)-[^18F]fluspidine]
OD Adrenals: 36.0 μSv/MBq
OD Brain: 12.4 μSv/MBq
OD Breasts: 11.2 μSv/MBq
OD Gallbladder Wall: 15.5 μSv/MBq
OD Heart Wall: 17.9 μSv/MBq
OD Kidneys: 35.6 μSv/MBq
OD LLI Wall: 19.0 μSv/MBq
OD Liver: 12.5 μSv/MBq
OD Lungs: 30.5 μSv/MBq
OD Muscle: 7.2 μSv/MBq
OD Osteogenic Cells: 19.6 μSv/MBq
OD Ovaries: 17.0 μSv/MBq
OD Pancreas: 26.2 μSv/MBq
OD Red Marrow: 13.6 μSv/MBq
OD Skin: 9.1 μSv/MBq
OD Small Intestine: 31.9 μSv/MBq
OD Spleen: 17.6 μSv/MBq
OD Stomach Wall: 14.8 μSv/MBq
OD Testes: 11.2 μSv/MBq
OD Thymus: 12.0 μSv/MBq
OD Thyroid: 11.7 μSv/MBq
OD Total Body: 12.5 μSv/MBq
OD ULI Wall: 33.3 μSv/MBq
OD Urinary Bladder Wall: 13.9 μSv/MBq
OD Uterus: 15.9 μSv/MBq
ED Contr. Adrenals: 0.3 μSv/MBq
ED Contr. Brain: 0.1 μSv/MBq
ED Contr. Breasts: 1.3 μSv/MBq
ED Contr. Gallbladder Wall: 0.1 μSv/MBq
ED Contr. Heart Wall: 0.2 μSv/MBq
ED Contr. Kidneys: 0.3 μSv/MBq
ED Contr. LLI Wall: 1.1 μSv/MBq
ED Contr. Liver: 0.5 μSv/MBq
ED Contr. Lungs: 3.7 μSv/MBq
ED Contr. Muscle: 0.1 μSv/MBq
ED Contr. Osteogenic Cells: 0.2 μSv/MBq
ED Contr. Ovaries: 1.4 μSv/MBq
ED Contr. Pancreas: 0.2 μSv/MBq
ED Contr. Red Marrow: 1.6 μSv/MBq
ED Contr. Skin: 0.1 μSv/MBq
ED Contr. Small Intestine: 0.3 μSv/MBq
ED Contr. Spleen: 0.2 μSv/MBq
ED Contr. Stomach Wall: 1.8 μSv/MBq
ED Contr. Thymus: 0.1 μSv/MBq
ED Contr. Thyroid: 0.5 μSv/MBq
ED Contr. ULI Wall: 2.0 μSv/MBq
ED Contr. Urinary Bladder Wall: 0.6 μSv/MBq
ED Contr. Uterus: 0.1 μSv/MBq
ED ICRP 60: 17.3 μSv/MBq
ED: 16.7 μSv/MBq
ED (listed as (S)-(−)-[^18F]Fluspidine): 16.7 μSv/MBq

From publication PMC6273209, “Evaluation of the Enantiomer Specific Biokinetics and Radiation Doses of [^18F]Fluspidine—A New Tracer in Clinical Translation for Imaging of σ1 Receptors” (Molecules, 2016)
